Results reported in paper PMC9031459, “Experimental Comparison of Primary and hiPS-Based In Vitro Blood–Brain Barrier Models for Pharmacological Research” (Pharmaceutics, 2022).

Assays:
[1] = system: co-culture model of human hiPS-BCECs and rat glial cells; design: method as in PMID 31690750; details: literature value ref 24; cited from earlier work
[2] = Permeability/transport across hiPS-BCEC barrier in microfluidic Quasi Vivo QV600 setup; details: human, not told
Protocol: (§6) The microfluidic studies were performed using the commercial Quasi Vivo® QV600 system ([…] ., York, UK). […] On day 10, when the barrier has been established, the membrane containing the blood-brain barrier was inserted into the QV 600 chamber. The apical channel was filled with enriched endothelial medium (heSFM with 5% […] added to the basolateral channel. A fluidic flow with a flow rate of 200 μL min^-1 was established and experiments were performed for up to 4 days. […] For comparison, samples in the static setting were collected at the same time points with a separate insert for each time point. […] Standard dilutions of sample media were used for quantification and sample media from cell wells without sodium fluorescence application were used for background subtraction. All measurements were performed in duplex at least. […] Samples were collected from both the apical and basolateral circuits, filtered using Whatman Mini-UniPrepTM filters (VWR International, […] , Germany) and caffeine concentrations measured using HPLC. […] At a flow rate of 0.4 mL min^-1, 5 μL of sample was injected and separated at a column temperature of 60 °C.

[3] = system: hiPS-BCECs; test: as above; details: fluidic system; for caffeine concentration, basolateral side: 100 µM caffeine apical
Protocol: as §6

[4] = Permeability/transport across hiPS-derived BCEC monolayer on membrane inserts (static); details: human
Protocol: (§1) The stem cell line UKKi011-A was differentiated according to the protocol published by Stebbins et al. with slight modifications (Figure 2B). Cells were seeded at a density of 5 × 10^3 cells cm^−2 on Matrigel-coated (Corning, Amsterdam, The Netherlands) 6-well plates and cultivated for 3 days in mTeSR1 medium (Stem Cell Technologies, Vancouver, BC, Canada) before initiating the differentiation. On day 0, the mTeSR1 medium was switched to unconditioned medium (DMEM/F12 with 20% knock-out serum replacement, 1% non-essential amino acids, 0.5% GlutaMAX and […] 2-mercaptoethanol) and medium was exchanged daily for 5 days. On day 6, the medium was changed to endothelial medium with growth factors (heSFM with 1% platelet-poor plasma-derived human serum (PDS; SigmaAldrich, Taufkirchen, Germany), 20 ng mL^−1 bFGF (R&D Systems, Minneapolis, MN, USA) and 10 µM retinoic acid (SigmaAldrich, Taufkirchen, Germany)). On day 8, cells were dissociated with Accutase for 25 min at 37 °C and seeded at a density of 1 × 10^6 cells cm^−2 in endothelial medium with growth factors. Cells were seeded onto membrane inserts with 3.0 µm pore size (VWR International, Darmstadt, Germany) and coated with 400 µg mL^−1 human collagen IV (SigmaAldrich, Taufkirchen, Germany) and 100 µg mL^−1 fibronectin (SigmaAldrich, Taufkirchen, Germany) in 0.05% acetic acid. The medium was changed 24 h after seeding to either endothelial medium without growth factors (heSFM with 1% PDS) or enriched endothelial medium (heSFM with 5% PDS) on the apical side and heSFM on the basolateral side. Experiments were performed on day 10 or 11.
(§2) The substances of interest were added to the apical side of the membranes, incubated for 3 h at 37 °C, 5% CO2 and 90% relative humidity, and then the samples were collected from the apical and basolateral compartment for measurement. In the microfluidic setup, sodium fluorescein and caffeine (SigmaAldrich, Taufkirchen, Germany) were added to the apical channel and samples were collected 4, 24, 48 (only caffeine) and 72 h after application from both fluidic channels.
(§3) Sodium fluorescein was added to a final concentration of 1 µg mL^−1, the samples were transferred to black 96-well plates and fluorescence was measured at an excitation of 485 nm and emission of 535 nm with a Tecan infinite 200 plate reader (Tecan Group Ltd., Männedorf, Switzerland).
(§4) After incubation, the apical and basolateral medium were collected separately, transferred to plastic vials containing 5 mL Ultima Gold scintillation liquid (Perkin Elmer, Waltham, MA, USA) and radioactive decay was measured with a Tri-Carb 2910TR Scintillation counter (Perkin Elmer, Waltham, MA, USA).
(§5) Caffeine was added to a final concentration of 100 µM to the apical circuit. […] Detection was achieved using a Diode-Array-Detector (DAD) at a wavelength of 275 nm.

[5] = system: hiPS-BCECs; test: as above; details: for caffeine concentration, basolateral side / caffeine concentration, apical side: Figure 8B (static system), 100 µM caffeine apical; for permeability coefficient: hiPS-BCECs
Protocol: as §1, §2, §3, §4, §5

[6] = system: pBCECs; test: Permeability across primary porcine BCEC monolayer on Transwell inserts (static); format: in vitro ADME, Sus scrofa domestica; details: 3 h incubation
Protocol: The substances of interest were added to the apical side of the membranes, incubated for 3 h at 37 °C, 5% CO2 and 90% relative humidity, and then the samples were collected from the apical and basolateral compartment for measurement.

[7] = static, established protocol / equal serum distribution (1% PDS both sides), apical application, 3 h incubation
[8] = static, serum only in apical medium (5% PDS apical, serum-free basolateral), 3 h incubation

Row | Molecule | permeability coefficient, literature value [1] | Papp at 100 µM [2] | caffeine concentration, basolateral side ([3]; 4 h) | caffeine concentration, basolateral side ([3]; 24 h) | caffeine concentration, basolateral side ([3]; 48 h) | caffeine concentration, basolateral side ([3]; 72 h) | Papp at 100 µM [4] | caffeine concentration, basolateral side ([5]; 4 h) | caffeine concentration, apical side ([5]; 24 h) | caffeine concentration, basolateral side ([5]; 24 h) | caffeine concentration, apical side ([5]; 48 h) | caffeine concentration, basolateral side ([5]; 48 h) | permeability coefficient ([6]; 5% FCS apical, serum-free basolateral) | permeability coefficient ([6]; established protocol (serum-free medium on both sides), apical application) | permeability coefficient ([3]; hiPS-BCECs, flow 200 µL min^−1, 5% PDS apical, serum-free basolateral) | permeability coefficient ([5]; static system compared with fluidic, 5% PDS apical, serum-free basolateral) | permeability coefficient [5, 7] | permeability coefficient [5, 8]
1 | Cn1c(=O)c2c(ncn2C)n(C)c1=O [caffeine] | 3.1 × 10^–5 cm s^−1 | 30.4 ×10⁻⁶ cm/s | 5.91 ± 3.36 µM | 14.85 ± 3.50 µM | 17.08 ± 4.44 µM | 17.72 ± 3.34 µM | 9 ×10⁻⁶ cm/s | 24.46 ± 1.90 µM | 36.30 ± 2.71 µM | 36.19 ± 3.18 µM | 37.74 ± 3.02 µM | 37.97 ± 2.88 µM | – | – | – | – | – | –
2 | O=C([O-])c1ccccc1-c1c2ccc(=O)cc-2oc2cc([O-])ccc12.[Na+].[Na+] [sodium fluorescein] | – | – | – | – | – | – | – | – | – | – | – | – | 0.62 ×10⁻⁶ cm/s | 1.85 ×10⁻⁶ cm/s | 2.75 × 10^–6 ± 1.61 × 10^–6 cm s^−1 | 0.81 × 10^–6 ± 0.82 × 10^–7 cm s^−1 | 1.41e-06 cm/s | 8e-07 cm/s
3 | inulin [[14C]-inulin] | – | – | – | – | – | – | – | – | – | – | – | – | – | – | – | – | 3.19e-06 cm/s | 8.9e-07 cm/s
